The source of these data is US12329747B2, “Use of lipophilic beta-lactam antibiotics and carboxylate esters for the treatment of bacterial infections within citrus and other plant species” (priority 2019, dated 2025).

Where a name gives a salt, the structure may show the parent alone.

One series has as its system HLB. Particulars: cited from earlier work; for effect on HLB infected trees: spraying or common treatment, background statement.
The next series relates to citrus leaves. Particulars: external application, background statement; cited from earlier work.
In series [1] the test system is Murcott mandarin clippings. In words: Foliar application to citrus clippings, negative ESI mass spectrum of reservoir water after 24 hours. Particulars: 25 μmoles in 1:1 neem oil, 24 hour incubation; for penicillin G/V or metabolite peaks detected in reservoir water: negative ESI mass spectrum.
The test system of series [2] is fire blight (Erwinia amylovera). Particulars: background statement; cited from earlier work.
The next series deals with Candidatus Liberibacter. Particulars: background statement, cited from earlier work; for effectiveness against the pathogenic bacteria: grafting method.

Turning to `[Cu]` [Copper], in the series with HLB, the “effect on HLB infected trees” value is given as “not been found to be effective”.

As for `CC[C@H]1CCC[C@H](O[C@H]2CC[C@H](N(C)C)[C@@H](C)O2)[C@@H](C)C(=O)C2=C[C@@H]3[C@@H](C=C[C@@H]4C[C@@H](O[C@@H]5O[C@@H](C)[C@H](OC)[C@@H](OC)[C@H]5OC)C[C@@H]34)[C@@H]2CC(=O)O1` [Spinosyn A], the “penetration of citrus leaves or stems” value in the series with citrus leaves is given as “known to readily penetrate citrus leaves”.

Consider `COC(=O)[C@@H]1N2C(=O)[C@@H](NC(=O)Cc3ccccc3)[C@H]2SC1(C)C` [product compound 1, Methyl(2S,5R,6R)-3,3-dimethyl-7-oxo-6-(2-phenylacetamido)-4-thia-1-azabicyclo[3.2.0]heptane-2-carboxylate], for which, in series [1], the “hydrolysis of the ester into the active antibiotic by citrus tissue” value (“hydrolysis” for short) is “not being successfully metabolized to the active antibiotic”; the “penetration of waxy cuticle layer and epidermis to access the phloem” value (shortened to “penetration … to access the phloem”) was “affectively penetrate through the waxy cuticle layer and through the epidermis to access the phloem”.

`COC(=O)[C@@H]1N2C(=O)[C@@H](NC(=O)COc3ccccc3)[C@H]2SC1(C)C` [product compound 2, Methyl(2S,5R,6R)-3,3-dimethyl-7-oxo-6-(2-phenoxyacetamido)-4-thia-1-azabicyclo[3.2.0]heptane-2-carboxylate]: in series [1], the “hydrolysis” value is reported as “not being successfully metabolized to the active antibiotic”; the “penetration … to access the phloem” value was “affectively penetrate through the waxy cuticle layer and through the epidermis to access the phloem”.

`CC1(C)S[C@@H]2[C@H](NC(=O)Cc3ccccc3)C(=O)N2[C@H]1C(=O)OCc1ccccc1` [product compound 3, Benzyl(2S,5R,6R)-3,3-dimethyl-7-oxo-6-(2-phenylacetamido)-4-thia-1-azabicyclo[3.2.0]heptane-2-carboxylate]: in series [1], the “penetration … to access the phloem” value is reported as “substantially reduce permeability”; the “penicillin G/V or metabolite peaks detected in reservoir water” value is listed as “no recognizable metabolite peaks were detected”.

With `CC1(C)S[C@@H]2[C@H](NC(=O)COc3ccccc3)C(=O)N2[C@H]1C(=O)OCc1ccccc1` [product compound 4, Benzyl(2S,5R,6R)-3,3-dimethyl-7-oxo-6-(2-phenoxyacetamido)-4-thia-1-azabicyclo[3.2.0]heptane-2-carboxylate], in series [1], the “penetration … to access the phloem” value is recorded as “substantially reduce permeability”; the “penicillin G/V or metabolite peaks detected in reservoir water” value was “no recognizable metabolite peaks were detected”.

In the case of `CCCCCCCCCC(=O)OCOC(=O)[C@@H]1N2C(=O)[C@@H](NC(=O)Cc3ccccc3)[C@H]2SC1(C)C` [product compound 5, (Decanoyloxy)methyl (2S,5R,6R)-3,3-dimethyl-7-oxo-6-(2-phenylacetamido)-4-thia-1-azabicyclo[3.2.0]heptane-2-carboxylate], in series [1], the “hydrolysis” value was “hydrolyzed into the active antibiotic”; the “penetration … to access the phloem” value is “affectively penetrate through the waxy cuticle layer and through the epidermis to access the phloem”; the “penicillin G/V or metabolite peaks detected in reservoir water” value is listed as “base peaks in the mass spectrum corresponded to the active antibiotics”.

As to `CCCCCCCCCC(=O)OCOC(=O)[C@@H]1N2C(=O)[C@@H](NC(=O)COc3ccccc3)[C@H]2SC1(C)C` [product compound 6, (Decanoyloxy)methyl(2S,5R,6R)-3,3-dimethyl-7-oxo-6-(2-phenoxyacetamido)-4-thia-1-azabicyclo[3.2.0]heptane-2-carboxylate], in series [1], the “hydrolysis” value is reported as “hydrolyzed into the active antibiotic”; the “penetration … to access the phloem” value is “affectively penetrate through the waxy cuticle layer and through the epidermis to access the phloem”; the “penicillin G/V or metabolite peaks detected in reservoir water” value is “base peaks in the mass spectrum corresponded to the active antibiotics”.

`CC(C)(C)C(=O)OCOC(=O)[C@@H]1N2C(=O)[C@@H](NC(=O)Cc3ccccc3)[C@H]2SC1(C)C` [product compound 7, (Pivaloyloxy)methyl (2S,5R,6R)-3,3-dimethyl-7-oxo-6-(2-phenylacetamido)-4-thia-1-azabicyclo[3.2.0]heptane-2-carboxylate]: in series [1], the “hydrolysis” value is “hydrolyzed into the active antibiotic”; the “penetration … to access the phloem” value is “affectively penetrate through the waxy cuticle layer and through the epidermis to access the phloem”; the “penicillin G/V or metabolite peaks detected in reservoir water” value is “base peaks in the mass spectrum corresponded to the active antibiotics”.

Turning to `CC(C)(C)C(=O)OCOC(=O)[C@@H]1N2C(=O)[C@@H](NC(=O)COc3ccccc3)[C@H]2SC1(C)C` [product compound 8, (Pivaloyloxy)methyl (2S,5R,6R)-3,3-dimethyl-7-oxo-6-(2-phenoxyacetamido)-4-thia-1-azabicyclo[3.2.0]heptane-2-carboxylate], in series [1], the “hydrolysis” value is recorded as “hydrolyzed into the active antibiotic”; the “penetration … to access the phloem” value was “affectively penetrate through the waxy cuticle layer and through the epidermis to access the phloem”; the “penicillin G/V or metabolite peaks detected in reservoir water” value is listed as “base peaks in the mass spectrum corresponded to the active antibiotics”.

Take `[H]/N=C(/N)N[C@H]1[C@H](O)[C@@H](O)[C@H](O[C@@H]2O[C@@H](C)[C@](O)(C=O)[C@H]2O[C@@H]2O[C@@H](CO)[C@H](O)[C@@H](O)[C@@H]2NC)[C@@H](N/C(N)=N\[H])[C@@H]1O` [streptomycin sulfate]: in the series with HLB, the “effect on HLB infected trees” value is “only marginally improved the health of trees”. Besides, the “bactericidal or bacteriostatic action” value in series [2] is “bactericidal”.

benzylpenicillin (penicillin G): the “effect on tree health” value with HLB (direct injected into infected citrus trees, alone or in combinations with other antibiotics) is “marked improvement”. In addition, in the series with Candidatus Liberibacter, the phytotoxicity result was “very little phytotoxicity” and the “effectiveness against the pathogenic bacteria” value is reported as “extremely effective”. In the series on citrus leaves, the “penetration of citrus leaves or stems” value was “do not easily penetrate the waxy cuticle covering”.

phenoxymethylpenicillin (penicillin V): in the series with Candidatus Liberibacter, the phytotoxicity result is “very little phytotoxicity” and the “effectiveness against the pathogenic bacteria” value is reported as “extremely effective”. Moreover, the “penetration of citrus leaves or stems” value in the series on citrus leaves is given as “do not easily penetrate the waxy cuticle covering”.
